SMILES strings stand for the structures. Bounds are passed on as bounds.

What all share (format): biochemical
Assay [1] has as its target T1, HCV NS3/4A protease complex, H77 strain (Hepatitis C virus genotype 1a, UniProt P27958, C1454S/C1711G).
T1 construct: DNA encoding the recombinant HCV NS3/4A protease complex (amino acids 1027 to 1711) for these strains; made in house; host or cells: Escherichia coli BL21 (DE3), pET21b
The experiment in a line: FRET peptide assay to monitor HCV NS3/4A proteolytic activity (H77 strain). The following applies: read-out: IC50 against the NS3/4A H77 strain. From the text:
(§1) HCV NS3 protease complexes, derived from the BMS strain, H77 strain or J4L6S strain, were generated, as described below. These purified recombinant proteins were generated for use in a homogeneous assay (see below) to provide an indication of how effective compounds of the present disclosure would be in inhibiting HCV NS3 proteolytic activity.
(§2) Serum from an HCV-infected patient was obtained from Dr. T. Wright, San Francisco Hospital. An engineered full-length cDNA (compliment deoxyribonucleic acid) template of the HCV genome (BMS strain) was constructed from DNA fragments obtained by reverse transcription-PCR (RT-PCR) of serum RNA (ribonucleic acid) and using primers selected on the basis of homology between other genotype 1a strains. From the determination of the entire genome sequence, a genotype 1a was assigned to the HCV isolate according to the classification of Simmonds et al. (See P Simmonds, K A Rose, S Graham, S W Chan, F McOmish, B C Dow, E A Follett, P L Yap and H Marsden, J. Clin. Microbiol., 31(6), 1493-1503 (1993)). […]

The target in assay [2] is T2, HCV NS3/4A protease complex, J4L6S strain (Hepatitis C virus genotype 1b, UniProt O92972, C1454S/C1711G).
T2 construct: DNA encoding the recombinant HCV NS3/4A protease complex (amino acids 1027 to 1711) for these strains; made in house; host or cells: Escherichia coli BL21 (DE3), pET21b
The experiment in a line: FRET peptide assay to monitor HCV NS3/4A proteolytic activity (J4L6S strain). The following applies: read-out: IC50 against the NS3/4A J4L6S strain.
Description: as §1, §2

In assay [3] the target is T3, porcine pancreatic elastase (PPE) (Sus scrofa, UniProt P00772).
T3 construct: purchased Sigma, EMDbiosciences
The experiment in a line: Specificity assay, porcine pancreatic elastase. The note with it: read-out: PPE activity in the specificity assays (IC50). As to the method:
The specificities of compounds of the present disclosure were determined against a variety of serine proteases: human neutrophil elastase (HNE), porcine pancreatic elastase (PPE) and human pancreatic chymotrypsin and one cysteine protease: human liver cathepsin B. In all cases a 96-well plate format protocol using either colorimetric p-nitroaniline (pNA) substrate or fluorometric Amino-Methyl-Coumarin (AMC) specific for each enzyme was used as described previously (PCT Patent Application No. WO 00/09543) with some modifications to the serine protease assays. All enzymes were purchased from Sigma, EMDbiosciences while the substrates were from Bachem, Sigma and EMDbiosciences.
The pNA assay for Chymotrypsin included a 1 h enzyme-inhibitor pre-incubation at room temperature followed by addition of substrate and hydrolysis to ˜15% conversion as measured on a Spectramax Pro microplate reader. Compound concentrations varied from 100 to 0.4 μM depending on their potency. Cathepsin B, HNE, and PPE assays each was initiated by addition of substrate to enzyme-inhibitor pre-incubated for 10 min at room temperature and hydrolysis to 15% conversion as measured on cytofluor.
50 mM Tris-HCl, pH 8.0, 50 mM NaCl, 0.1 mM EDTA, 3% DMSO, 0.02% Tween-20, 5 μM succ-AAPV-AMC and 20 nM HNE or 8 nM PPE;
The percentage of inhibition was calculated using the formula: [1−((UVinh−UVblank)/(UVctl−UVblank))]×100 […]

T1 sequence (P27958 1027-1711 C1454S/C1711G, one chain of several): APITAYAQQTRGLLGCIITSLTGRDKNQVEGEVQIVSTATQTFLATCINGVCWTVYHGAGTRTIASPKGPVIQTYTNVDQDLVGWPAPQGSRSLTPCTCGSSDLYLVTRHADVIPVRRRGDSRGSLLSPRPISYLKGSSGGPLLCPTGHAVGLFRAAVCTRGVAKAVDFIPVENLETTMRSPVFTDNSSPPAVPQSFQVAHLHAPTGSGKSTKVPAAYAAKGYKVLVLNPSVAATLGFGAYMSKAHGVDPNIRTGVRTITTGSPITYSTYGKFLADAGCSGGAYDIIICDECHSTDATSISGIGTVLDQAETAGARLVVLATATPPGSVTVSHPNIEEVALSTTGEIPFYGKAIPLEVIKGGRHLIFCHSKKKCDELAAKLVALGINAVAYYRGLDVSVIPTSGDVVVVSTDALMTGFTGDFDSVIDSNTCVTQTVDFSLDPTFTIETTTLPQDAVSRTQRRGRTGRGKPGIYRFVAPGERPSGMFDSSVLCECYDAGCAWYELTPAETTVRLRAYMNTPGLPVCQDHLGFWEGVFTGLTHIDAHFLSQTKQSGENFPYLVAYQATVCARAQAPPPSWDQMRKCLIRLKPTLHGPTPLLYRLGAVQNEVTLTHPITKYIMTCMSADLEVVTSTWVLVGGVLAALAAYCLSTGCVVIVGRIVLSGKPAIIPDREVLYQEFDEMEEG
T3 sequence (P00772 27-266): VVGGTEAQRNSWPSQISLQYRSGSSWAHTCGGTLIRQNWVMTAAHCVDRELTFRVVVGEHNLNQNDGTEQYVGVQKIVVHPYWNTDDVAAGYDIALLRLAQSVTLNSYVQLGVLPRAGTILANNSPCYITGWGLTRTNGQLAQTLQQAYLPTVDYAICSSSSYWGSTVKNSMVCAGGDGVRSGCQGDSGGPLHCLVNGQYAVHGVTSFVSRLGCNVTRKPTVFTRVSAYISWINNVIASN
T2 sequence (O92972 1027-1711 C1454S/C1711G, one chain of several): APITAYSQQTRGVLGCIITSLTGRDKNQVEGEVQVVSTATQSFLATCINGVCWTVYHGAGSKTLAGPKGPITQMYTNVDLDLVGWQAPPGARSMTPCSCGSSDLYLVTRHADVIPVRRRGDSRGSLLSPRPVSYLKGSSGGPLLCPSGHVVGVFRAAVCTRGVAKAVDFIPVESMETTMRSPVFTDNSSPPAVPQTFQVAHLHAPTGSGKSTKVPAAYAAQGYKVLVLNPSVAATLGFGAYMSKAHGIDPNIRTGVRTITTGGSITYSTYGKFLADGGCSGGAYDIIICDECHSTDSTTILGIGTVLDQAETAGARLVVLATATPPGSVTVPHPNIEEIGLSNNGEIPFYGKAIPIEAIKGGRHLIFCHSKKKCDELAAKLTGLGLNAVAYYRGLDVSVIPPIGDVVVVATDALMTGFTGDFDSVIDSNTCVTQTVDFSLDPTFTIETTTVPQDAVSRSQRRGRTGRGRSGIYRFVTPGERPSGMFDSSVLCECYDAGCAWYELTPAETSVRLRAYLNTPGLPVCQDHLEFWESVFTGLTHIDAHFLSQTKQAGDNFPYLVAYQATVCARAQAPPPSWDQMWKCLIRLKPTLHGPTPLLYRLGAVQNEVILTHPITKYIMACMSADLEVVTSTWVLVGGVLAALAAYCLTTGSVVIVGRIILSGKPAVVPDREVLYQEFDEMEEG

In the case of `C=C[C@@H]1C[C@]1(NC(=O)[C@@H]1C[C@@H](Oc2nc(N(C)C)cc3cc(OC)ccc23)CN1C(=O)C(Nc1cc(C)cc(C)n1)C(C)(C)C)C(=O)NS(=O)(=O)C1CC1` (single isomer, unassigned) [Compound 18], the IC50 in assay [1] is 1.2 nM; in assay [2], 0.9 nM; in assay [3], over 1560 nM.

Source of the values: US7772180B2, “Hepatitis C virus inhibitors” (Bristol-Myers Squibb Company, priority 2006, dated 2010).
